Source: PubChem BioAssay AID206 (DTP/NCI, 2004)
Values joined by “and” are separate entries in the source; they are usually repeats but may differ in a detail not shown here. Identical values can stand only once. Results filed as inconclusive are left out.

Test system: nude mice, HT29 intrarenal xenograft, tumor weight T/C
Test: NCI In Vivo Anticancer Drug Screen. Data for tumor model HT29;CX-1 Human Adenocarcinoma (MER+) (intrarenal inoculation) in NU/NU Swiss (nude) mice
Conditions: endpoint: mean tumor weight change, higher = larger tumour
Outline: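 T/C = treated-group value ÷ vehicle-group value, using tumor size or survival.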

## CC[C@H](CC[C@@H](C)C1CC[C@H]2[C@@H]3CC=C4C[C@@H](OP(=O)(N5CC5)N5CC5)CC[C@]4(C)[C@H]3CC[C@]12C)C(C)C (stereo partly drawn)
dose: 100.0 mg/kg/injection, schedule: Q01DX010 (sc), vehicle: saline with Tween-80
  T/C: 73 % of control
dose: 800.0 mg/kg/injection, schedule: Q01DX010 (sc), vehicle: saline with Tween-80
  T/C: 97 % of control

## COc1ccc(S(=O)(=O)N/N=C/C(=O)O)cc1
dose: 25.0 mg/kg/injection, schedule: Q04DX004 (sc), vehicle: saline with Tween-80
  T/C: 94 % of control
dose: 50.0 mg/kg/injection, schedule: Q04DX004 (sc), vehicle: saline with Tween-80
  T/C: 90 % of control and 102 % of control
dose: 100.0 mg/kg/injection, schedule: Q04DX004 (sc), vehicle: saline with Tween-80
  T/C: 59 % of control and 82 % of control

## CCC[CH2][Sn]1([CH2]CCC)[O]C2C(CO)OC(n3ccc(N)nc3=O)C2[O]1 (stereo not drawn)
dose: 3.0 mg/kg/injection, schedule: Q04DX004 (sc), vehicle: Klucel (hydroxypropylcellulose) (HPC)
  T/C: 27 % of control
dose: 6.0 mg/kg/injection, schedule: Q04DX004 (sc), vehicle: Klucel (hydroxypropylcellulose) (HPC)
  T/C: 85 % of control
dose: 12.0 mg/kg/injection, schedule: Q04DX004 (sc), vehicle: Klucel (hydroxypropylcellulose) (HPC)
  T/C: 109 % of control
dose: 24.0 mg/kg/injection, schedule: Q04DX004 (sc), vehicle: Klucel (hydroxypropylcellulose) (HPC)
  T/C: 76 % of control

## NCCCC(N)(C(=O)O)C(F)F (stereo not drawn)
dose: 300.0 mg/kg/injection, schedule: Q04DX004 (sc), vehicle: distilled water + alcohol
  T/C: 240 % of control
dose: 600.0 mg/kg/injection, schedule: Q04DX004 (sc), vehicle: distilled water + alcohol
  T/C: 169 % of control
dose: 1200.0 mg/kg/injection, schedule: Q04DX004 (sc), vehicle: distilled water + alcohol
  T/C: 75 % of control

## CN(C)CCN1C(=O)c2cccc3cc([N+](=O)[O-])cc(c23)C1=O
dose: 18.0 mg/kg/injection, schedule: Q04DX004 (sc), vehicle: saline with Tween-80
  T/C: 95 % of control

## CN(C)CC(Cl)CCl (stereo not drawn)
dose: 75.0 mg/kg/injection, schedule: Q04DX004 (sc), vehicle: saline
  T/C: 101 % of control
dose: 150.0 mg/kg/injection, schedule: Q04DX004 (sc), vehicle: saline
  T/C: 117 % of control
dose: 300.0 mg/kg/injection, schedule: Q04DX004 (sc), vehicle: saline
  T/C: 50 % of control

## CCOC1=Cc2c(oc3c(C(C)(C)C)cc(OCC)cc23)OC(C(C)(C)C)=C1
dose: 37.5 mg/kg/injection, schedule: Q04DX004 (sc), vehicle: saline with Tween-80
  T/C: 79 % of control
dose: 75.0 mg/kg/injection, schedule: Q04DX004 (sc), vehicle: saline with Tween-80
  T/C: 87 % of control
dose: 150.0 mg/kg/injection, schedule: Q04DX004 (sc), vehicle: saline with Tween-80
  T/C: 256 % of control

## C=C1C(=O)OCC1C(=O)O (stereo not drawn)
dose: 50.0 mg/kg/injection, schedule: Q04DX004 (sc), vehicle: suspension in saline
  T/C: 87 % of control
dose: 100.0 mg/kg/injection, schedule: Q04DX004 (sc), vehicle: suspension in saline
  T/C: 48 % of control
dose: 200.0 mg/kg/injection, schedule: Q04DX004 (sc), vehicle: suspension in saline
  T/C: 48 % of control

## COC1=C2C[C@@H](C)C[C@@H](OC)[C@@H](O)[C@H](C)/C=C(\C)[C@@H](OC(N)=O)[C@H](OC)/C=C\C=C(/C)C(=O)NC(=CC1=O)C2=O
dose: 2.0 mg/kg/injection, schedule: Q04DX004 (sc), vehicle: saline
  T/C: 110 % of control
dose: 4.0 mg/kg/injection, schedule: Q04DX004 (sc), vehicle: saline
  T/C: 113 % of control
dose: 8.0 mg/kg/injection, schedule: Q04DX004 (sc), vehicle: saline
  T/C: 54 % of control
dose: 16.0 mg/kg/injection, schedule: Q04DX004 (sc), vehicle: saline
  T/C: 59 % of control

## c1ccc([C@H]2CN3CCSC3=N2)cc1
dose: 15.0 mg/kg/injection, schedule: Q04DX004 (sc), vehicle: saline
  T/C: 152 % of control
dose: 30.0 mg/kg/injection, schedule: Q04DX004 (sc), vehicle: saline
  T/C: 114 % of control
